Legend:
[1] = tested on: barnyardgrass; test: Test C preemergence; type: in vivo, Echinochloa crusgalli; conditions: preemergence, 0 to 100 scale (0 no effect, 100 complete control)
Outline: (§1)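 Visual injury score, 0–100 (100 = complete control), taken 10 days after treatment relative to untreated controls. Pre: directed spray onto soil over sown seeds. Post: foliar spray at one- to two-leaf stage, 2–10 cm. Solvent/surfactant formulation; loam–sand soil; greenhouse.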

[2] = tested on: blackgrass; test: Test C preemergence; type: in vivo, Alopecurus myosuroides; conditions: preemergence, 0 to 100 scale (0 no effect, 100 complete control)
Outline: as §1

[3] = tested on: corn; test: Test C preemergence; type: in vivo, Zea mays; conditions: preemergence, 0 to 100 scale (0 no effect, 100 complete control)
Outline: as §1

[4] = tested on: green foxtail; test: Test C preemergence; type: in vivo, Setaria viridis; conditions: preemergence, 0 to 100 scale (0 no effect, 100 complete control)
Outline: as §1

[5] = tested on: kochia; test: Test C preemergence; type: in vivo, Bassia scoparia; conditions: preemergence, 0 to 100 scale (0 no effect, 100 complete control)
Outline: as §1

[6] = tested on: oat, wild; test: Test C preemergence; type: in vivo, Avena fatua; conditions: preemergence, 0 to 100 scale (0 no effect, 100 complete control)
Excerpt: (§2) Seeds of plant species selected from barnyardgrass (Echinochloa crusgalli), blackgrass (Alopecurus myosuroides), corn (Zea mays), foxtail, giant (giant foxtail, Setaria faberi), green foxtail (Setaria viridis), goosegrass (Eleusine indica), kochia (Bassia scoparia), oat, wild (wild oat, Avena fatua), pigweed, palmer (palmer amaranth, palmer pigweed, Amaranthus palmeri), Pigweed, Redroot (redroot pigweed, Amaranthus retroflexus), ragweed (common ragweed, Ambrosia artemisiifolia), ryegrass, Italian ([…] ryegrass, Lolium multiflorum), soybean (Glycine max), and wheat (Triticum aestivum) were planted into a blend of loam soil and sand and treated preemergence with a directed soil spray using test chemicals formulated in a non-phytotoxic solvent mixture which included a surfactant. At the same time, plants selected from these crops and weed species and also galium (catchweed bedstraw, Galium aparine) and horseweed (Erigeron canadensis) were planted in pots containing the same blend of loam soil and sand and treated with postemergence applications of test chemicals formulated in the same manner. Plants ranged in height from 2 to 10 cm and were in the one- to two-leaf stage for the postemergence treatment. Treated plants and untreated controls were maintained in a greenhouse for 10 days, after which time all treated plants were compared to untreated controls and visually evaluated for injury. Plant response ratings, summarized in Table C, are based on a 0 to 100 scale where 0 is no effect and 100 is complete control. A dash (-) response means no test result.

[7] = tested on: pigweed, palmer; test: Test C preemergence; type: in vivo, Amaranthus palmeri; conditions: preemergence, 0 to 100 scale (0 no effect, 100 complete control)
Outline: as §1

[8] = tested on: ragweed; test: Test C preemergence; type: in vivo, Ambrosia artemisiifolia; conditions: preemergence, 0 to 100 scale (0 no effect, 100 complete control)
Outline: as §1

[9] = tested on: ryegrass, Italian; test: Test C preemergence; type: in vivo, Lolium multiflorum; conditions: preemergence, 0 to 100 scale (0 no effect, 100 complete control)
Outline: as §1

[10] = tested on: soybean; test: Test C preemergence; type: in vivo, Glycine max; conditions: preemergence, 0 to 100 scale (0 no effect, 100 complete control)
Excerpt: as §2

[11] = tested on: wheat; test: Test C preemergence; type: in vivo, Triticum aestivum; conditions: preemergence, 0 to 100 scale (0 no effect, 100 complete control)
Excerpt: as §2

[12] = tested on: barnyardgrass; test: Test C postemergence; type: in vivo, Echinochloa crusgalli; conditions: 10 days, 0 to 100 scale (0 no effect, 100 complete control)
Outline: as §1

[13] = tested on: blackgrass; test: Test C postemergence; type: in vivo, Alopecurus myosuroides; conditions: 10 days, 0 to 100 scale (0 no effect, 100 complete control)
Outline: as §1

[14] = tested on: corn; test: Test C postemergence; type: in vivo, Zea mays; conditions: 10 days, 0 to 100 scale (0 no effect, 100 complete control)
Outline: as §1

[15] = tested on: green foxtail; test: Test C postemergence; type: in vivo, Setaria viridis; conditions: 10 days, 0 to 100 scale (0 no effect, 100 complete control)
Outline: as §1

[16] = tested on: kochia; test: Test C postemergence; type: in vivo, Bassia scoparia; conditions: 10 days, 0 to 100 scale (0 no effect, 100 complete control)
Outline: as §1

[17] = tested on: oat, wild; test: Test C postemergence; type: in vivo, Avena fatua; conditions: 10 days, 0 to 100 scale (0 no effect, 100 complete control)
Excerpt: as §2

[18] = tested on: pigweed, palmer; test: Test C postemergence; type: in vivo, Amaranthus palmeri; conditions: 10 days, 0 to 100 scale (0 no effect, 100 complete control)
Outline: as §1

[19] = tested on: ragweed; test: Test C postemergence; type: in vivo, Ambrosia artemisiifolia; conditions: 10 days, 0 to 100 scale (0 no effect, 100 complete control)
Outline: as §1

[20] = tested on: ryegrass, Italian; test: Test C postemergence; type: in vivo, Lolium multiflorum; conditions: 10 days, 0 to 100 scale (0 no effect, 100 complete control)
Outline: as §1

[21] = tested on: soybean; test: Test C postemergence; type: in vivo, Glycine max; conditions: 10 days, 0 to 100 scale (0 no effect, 100 complete control)
Excerpt: as §2

[22] = tested on: wheat; test: Test C postemergence; type: in vivo, Triticum aestivum; conditions: 10 days, 0 to 100 scale (0 no effect, 100 complete control)
Excerpt: as §2

[23] = tested on: galium; test: Test C postemergence; type: in vivo, Galium aparine; conditions: 10 days, 0 to 100 scale (0 no effect, 100 complete control)
Outline: as §1

[24] = tested on: horseweed; test: Test C postemergence; type: in vivo, Erigeron canadensis; conditions: 10 days, 0 to 100 scale (0 no effect, 100 complete control)
Outline: as §1

CC(C)c1ncn(-c2cc(C(=O)N3C[C@H](C)Oc4c(Cl)cccc43)cnn2)n1 [Compound 305]
Barnyardgrass plant response rating ([1]; 500 g ai/ha): 100 | Barnyardgrass plant response rating ([1]; Test C, 125 g ai/ha): 70 | Blackgrass plant response rating ([2]; 500 g ai/ha): 90 | Blackgrass plant response rating ([2]; Test C, 125 g ai/ha): 50 | Corn plant response rating ([3]; 500 g ai/ha): 30 | Corn plant response rating ([3]; Test C, 125 g ai/ha): 0 | Foxtail, Green plant response rating ([4]; 500 g ai/ha): 100 | Foxtail, Green plant response rating ([4]; Test C, 125 g ai/ha): 100 | Kochia plant response rating ([5]; 500 g ai/ha): 100 | Kochia plant response rating ([5]; Test C, 125 g ai/ha): 80 | Oat, Wild plant response rating ([6]; 500 g ai/ha): 80 | Oat, Wild plant response rating ([6]; Test C, 125 g ai/ha): 20 | Pigweed, Palmer plant response rating ([7]; 500 g ai/ha): 100 | Pigweed, Palmer plant response rating ([7]; Test C, 125 g ai/ha): 80 | Ragweed plant response rating ([8]; 500 g ai/ha): 90 | Ragweed plant response rating ([8]; Test C, 125 g ai/ha): 70 | Ryegrass, Italian plant response rating ([9]; 500 g ai/ha): 90 | Ryegrass, Italian plant response rating ([9]; Test C, 125 g ai/ha): 60 | Soybean plant response rating ([10]; 500 g ai/ha): 90 | Soybean plant response rating ([10]; Test C, 125 g ai/ha): 0 | Wheat plant response rating ([11]; 500 g ai/ha): 70 | Wheat plant response rating ([11]; Test C, 125 g ai/ha): 0 | Plant response rating, Barnyardgrass ([12]; 500 g ai/ha, postemergence): 90 | Plant response rating, Barnyardgrass ([12]; Postemergence, 125 g ai/ha): 30 | Plant response rating, Blackgrass ([13]; 500 g ai/ha, postemergence): 90 | Plant response rating, Blackgrass ([13]; Postemergence, 125 g ai/ha): 40 | Plant response rating, Corn ([14]; 500 g ai/ha, postemergence): 90 | Plant response rating, Corn ([14]; Postemergence, 125 g ai/ha): 10 | Plant response rating, Foxtail, Green ([15]; 500 g ai/ha, postemergence): 90 | Plant response rating, Foxtail, Green ([15]; Postemergence, 125 g ai/ha): 50 | Plant response rating, Kochia ([16]; 500 g ai/ha, postemergence): 80 | Plant response rating, Kochia ([16]; Postemergence, 125 g ai/ha): 50 | Plant response rating, Oat, Wild ([17]; 500 g ai/ha, postemergence): 60 | Plant response rating, Oat, Wild ([17]; Postemergence, 125 g ai/ha): 30 | Plant response rating, Pigweed, Palmer ([18]; 500 g ai/ha, postemergence): 80 | Plant response rating, Pigweed, Palmer ([18]; Postemergence, 125 g ai/ha): 30 | Plant response rating, Ragweed ([19]; 500 g ai/ha, postemergence): 80 | Plant response rating, Ragweed ([19]; Postemergence, 125 g ai/ha): 70 | Plant response rating, Ryegrass, Italian ([20]; 500 g ai/ha, postemergence): 60 | Plant response rating, Ryegrass, Italian ([20]; Postemergence, 125 g ai/ha): 30 | Plant response rating, Soybean ([21]; 500 g ai/ha, postemergence): 100 | Plant response rating, Soybean ([21]; Postemergence, 125 g ai/ha): 100 | Plant response rating, Wheat ([22]; 500 g ai/ha, postemergence): 90 | Plant response rating, Wheat ([22]; Postemergence, 125 g ai/ha): 40 | Plant response rating, Galium ([23]; 500 g ai/ha, postemergence): 100 | Plant response rating, Galium ([23]; Postemergence, 125 g ai/ha): 100 | Plant response rating, Horseweed ([24]; 500 g ai/ha, postemergence): 100 | Plant response rating, Horseweed ([24]; Postemergence, 125 g ai/ha): 30
